The source of these data is ChEMBL document CHEMBL3044728, “Synthesis and biological activity of new (E)-alpha-(Methoxyimino)benzeneacetate derivatives containing a substituted pyrazole ring” (2010).

The term inhibition denotes the drop in the measured response relative to a control, in per cent.

Holding throughout (assay type): functional
In one test the test system is Leucania. Nature of the test: Insecticidal activity against Leucania venalba at 600 mg/L relative to control.
The test system of test [1] is Phytophthora infestans. Nature of the test: Antifungal activity against Phytophthora infestans assessed as inhibition at 25 mg/L relative to control.
Test [2] relates to Pseudoperonospora cubensis. The test can be described thus: Antifungal activity against Pseudoperonospora cubensis assessed as inhibition at 6.25 mg/L relative to control.
In test [3] the test system is Blumeria graminis. The test can be described thus: Antifungal activity against Blumeria graminis assessed as inhibition at 6.25 mg/L relative to control.
Another test concerns Myzus persicae. The test can be described thus: Insecticidal activity against Myzus persicae (green peach aphid) at 600 mg/L relative to control.
Test [4] relates to Pyricularia oryzae. Nature of the test: Antifungal activity against Magnaporthe oryzae assessed as inhibition at 25 mg/L relative to control.
The subject of test [5] is Pseudoperonospora cubensis. Nature of the test: Antifungal activity against Pseudoperonospora cubensis assessed as inhibition at 25 mg/L relative to control.
Test [6] concerns Blumeria graminis. Nature of the test: Antifungal activity against Blumeria graminis assessed as inhibition at 400 mg/L relative to control.
Test [7] relates to Pyricularia oryzae. The test can be described thus: Antifungal activity against Magnaporthe oryzae assessed as inhibition at 0.92 mg/L relative to control.
The test system of test [8] is Pseudoperonospora cubensis. The test can be described thus: Antifungal activity against Pseudoperonospora cubensis assessed as inhibition at 400 mg/L relative to control.
Test [9] relates to Blumeria graminis. Nature of the test: Antifungal activity against Blumeria graminis assessed as inhibition at 1.56 mg/L relative to control.
Test [10] has as its system Phytophthora infestans. Nature of the test: Antifungal activity against Phytophthora infestans assessed as inhibition at 0.92 mg/L relative to control.
A further test concerns Tetranychus cinnabarinus. The test can be described thus: Acaricidal activity against Tetranychus cinnabarinus (carmine spider mite) at 600 mg/L relative to control.
Another test concerns Culex pipiens pallens. The test can be described thus: Insecticidal activity against Culex pipiens pallens (mosquito) at 600 mg/L relative to control.

For the compound `CO/N=C(/C(=O)OC)c1ccccc1COc1c(C)c(-c2cc(C)ccc2C)nn1C`, the Activity in the test with Leucania and in the test on Myzus persicae was 100% each time. In addition, the figures for the inhibition at 25 µg/mL (in the test on Phytophthora infestans [1]; in the test with Pyricularia oryzae [4]; in [5]) were 100%, 100% and 80%, respectively. Moreover, the inhibition at 6.25 µg/mL (in test [2]; in the test on Blumeria graminis [3]) was 40% throughout. Moreover, the inhibition at 400 µg/mL (with Blumeria graminis [6]; in [8]) was 100% throughout. The results for the inhibition at 0.92 µg/mL with Pyricularia oryzae [7] and with Phytophthora infestans [10] were 100% and 60%, respectively. Moreover, the inhibition at 1.56 µg/mL in the test with Blumeria graminis [9] is 20%.
`CO/N=C(/C(=O)OC)c1ccccc1COc1cc(-c2ccc(C)c(C)c2)nn1C`: the inhibition at 25 µg/mL is 100% in the test with Phytophthora infestans [1], 100% with Pyricularia oryzae [4] and 40% in test [5]. Further, the inhibition at 6.25 µg/mL in the test on Blumeria graminis [3] was 30%. The Activity in the test with Myzus persicae and in the test on Tetranychus cinnabarinus was 100% throughout. In addition, the inhibition at 400 µg/mL stood at 100% in the test with Blumeria graminis [6] and 98% in test [8]. The inhibition at 0.92 µg/mL in the test with Pyricularia oryzae [7] turned out to be 50%; in the test with Phytophthora infestans [10], 80%.
Consider `CNC(=O)/C(=N/OC)c1ccccc1COc1cc(-c2ccc(Cl)cc2)nn1C`, for which the results for the inhibition at 6.25 µg/mL (in test [2]; in the test with Blumeria graminis [3]) were 60% and 40%, respectively. For the same compound, the Activity in the test with Myzus persicae and in the test with Culex pipiens pallens was 100% in each case. In addition, the inhibition at 25 µg/mL in the test on Pyricularia oryzae [4] came out at 0%; in [5], 100%. Further, the inhibition at 400 µg/mL (in the test on Blumeria graminis [6]; in test [8]) was 100% each time. In the test with Blumeria graminis [9], the inhibition at 1.56 µg/mL worked out at 0%.
`CO/N=C(/C(=O)OC)c1ccccc1COc1cc(-c2ccccc2)nn1C`: the inhibition at 25 µg/mL in the test on Phytophthora infestans [1] stood at 0%; in the test with Pyricularia oryzae [4], 0%; in [5], 70%. The Activity in the test on Myzus persicae was 100%. For the same compound, the inhibition at 400 µg/mL in the test on Blumeria graminis [6] was found to be 70%; in [8] it was 95%.
`CO/N=C(/C(=O)OC)c1ccccc1COc1cc(-c2ccc(Cl)cc2)nn1C`: the inhibition at 25 µg/mL in the test on Phytophthora infestans [1] was 80%; in the test with Pyricularia oryzae [4] it was 80%; in test [5], 90%. Further, the inhibition at 6.25 µg/mL came out at 80% in test [2] and 40% in the test with Blumeria graminis [3]. Further, the inhibition at 400 µg/mL (with Blumeria graminis [6]; in test [8]) was 100% throughout. In the test on Culex pipiens pallens, the Activity amounted to 100%. For the same compound, in the test with Phytophthora infestans [10], the inhibition at 0.92 µg/mL is 50%.
Take `CO/N=C(/C(=O)OC)c1ccccc1COc1cc(-c2ccc(C)cc2C)nn1C`: the inhibition at 25 µg/mL was 100% in the test on Phytophthora infestans [1], 100% in the test on Pyricularia oryzae [4] and 90% in [5]. The inhibition at 6.25 µg/mL (in [2]; in the test on Blumeria graminis [3]) was 65% throughout. The Activity in the test with Myzus persicae was 100%. Also, the values for the inhibition at 400 µg/mL (with Blumeria graminis [6]; in test [8]) were 100% and 95%, respectively. For the same compound, the inhibition at 0.92 µg/mL in the test with Pyricularia oryzae [7] was found to be 0%; in the test on Phytophthora infestans [10], 100%.
With `CCOc1ccc(-c2nn(C)c(OCc3ccccc3/C(=N\OC)C(=O)OC)c2C)cc1`, the inhibition at 25 µg/mL in the test with Phytophthora infestans [1] came to 100%; in the test with Pyricularia oryzae [4], 100%; in test [5], 40%. For the same compound, the inhibition at 6.25 µg/mL in the test with Blumeria graminis [3] turned out to be 100%. The compound also registered an Activity in the test on Tetranychus cinnabarinus of 100%. For the same compound, the inhibition at 400 µg/mL (with Blumeria graminis [6]; in test [8]) was 100% throughout. Also, the inhibition at 0.92 µg/mL in the test with Pyricularia oryzae [7] and in the test with Phytophthora infestans [10] was 50% throughout. In the test with Blumeria graminis [9], the inhibition at 1.56 µg/mL was found to be 50%.
For `CNC(=O)/C(=N/OC)c1ccccc1COc1c(C)c(-c2cc(C)ccc2C)nn1C`, the inhibition at 25 µg/mL (with Phytophthora infestans [1]; with Pyricularia oryzae [4]; in test [5]) was 100% in each case. In addition, the inhibition at 6.25 µg/mL in test [2] was 50%; in the test with Blumeria graminis [3], 40%. This compound also displayed an Activity with Myzus persicae of 100%. Also, the inhibition at 400 µg/mL (with Blumeria graminis [6]; in [8]) was 100% each time. Moreover, the inhibition at 0.92 µg/mL with Pyricularia oryzae [7] and with Phytophthora infestans [10] was 100% throughout. Besides, the inhibition at 1.56 µg/mL in the test with Blumeria graminis [9] worked out at 0%.
Regarding `CNC(=O)/C(=N/OC)c1ccccc1COc1cc(-c2ccccc2OC)nn1C`, the inhibition at 25 µg/mL in the test on Phytophthora infestans [1] was determined as 0%; in the test with Pyricularia oryzae [4] it was 100%; in [5] it was 10%. In the test with Blumeria graminis [3], the inhibition at 6.25 µg/mL was 100%. This compound gave an Activity in the test on Myzus persicae of 100%. For the same compound, the inhibition at 400 µg/mL in the test on Blumeria graminis [6] turned out to be 100%; in [8], 75%. In addition, the inhibition at 0.92 µg/mL in the test with Pyricularia oryzae [7] was determined as 0%. Moreover, in the test on Blumeria graminis [9], the inhibition at 1.56 µg/mL was 45%.
In the test on Leucania, `CNC(=O)/C(=N/OC)c1ccccc1COc1c(C)c(-c2ccc(OC)cc2)nn1C` came in with an Activity of 100%. The inhibition at 25 µg/mL in the test with Phytophthora infestans [1] came to 80%; in the test with Pyricularia oryzae [4], 100%; in test [5], 85%. Also, the inhibition at 6.25 µg/mL in [2] was determined as 55%; in the test on Blumeria graminis [3], 100%. The inhibition at 400 µg/mL in the test on Blumeria graminis [6] is 100%; in test [8], 98%. Besides, the inhibition at 0.92 µg/mL in the test with Pyricularia oryzae [7] and with Phytophthora infestans [10] was 50% throughout. In the test on Blumeria graminis [9], the inhibition at 1.56 µg/mL is 75%.
Take `CO/N=C(/C(=O)OC)c1ccccc1COc1c(C)c(-c2ccc(C)c(C)c2)nn1C`: the inhibition at 25 µg/mL with Phytophthora infestans [1] was determined as 100%; in the test with Pyricularia oryzae [4], 100%; in test [5] it was 75%. In addition, the values for the inhibition at 6.25 µg/mL (in test [2]; with Blumeria graminis [3]) were 70% and 100%, respectively. For the same compound, the inhibition at 400 µg/mL (in the test with Blumeria graminis [6]; in test [8]) was 100% throughout. Moreover, the inhibition at 0.92 µg/mL worked out at 80% in the test on Pyricularia oryzae [7] and 100% in the test on Phytophthora infestans [10]. Further, the inhibition at 1.56 µg/mL in the test on Blumeria graminis [9] turned out to be 60%.
Turning to `CO/N=C(/C(=O)OC)c1ccccc1COc1c(C)c(-c2ccc(OC)cc2)nn1C`, the inhibition at 25 µg/mL came out at 100% in the test on Phytophthora infestans [1], 100% in the test with Pyricularia oryzae [4] and 55% in test [5]. Moreover, the inhibition at 6.25 µg/mL came out at 15% in test [2] and 85% in the test on Blumeria graminis [3]. Moreover, the inhibition at 400 µg/mL (in the test with Blumeria graminis [6]; in test [8]) was 100% throughout. Further, the results for the inhibition at 0.92 µg/mL with Pyricularia oryzae [7] and in the test with Phytophthora infestans [10] were 80% and 50%, respectively. Besides, the inhibition at 1.56 µg/mL in the test with Blumeria graminis [9] worked out at 30%.
Consider `CNC(=O)/C(=N/OC)c1ccccc1COc1c(C)c(-c2ccc(C)cc2C)nn1C`, for which the inhibition at 25 µg/mL (with Phytophthora infestans [1]; in the test with Pyricularia oryzae [4]; in test [5]) was 100% each time. The inhibition at 6.25 µg/mL (in [2]; in the test on Blumeria graminis [3]) was 100% in each case. The inhibition at 400 µg/mL (in the test with Blumeria graminis [6]; in test [8]) was 100% each time. Besides, the inhibition at 0.92 µg/mL in the test with Pyricularia oryzae [7] stood at 50%; in the test on Phytophthora infestans [10], 100%. The inhibition at 1.56 µg/mL in the test with Blumeria graminis [9] is 65%.
`CNC(=O)/C(=N/OC)c1ccccc1COc1c(C)c(-c2ccc(C)c(C)c2)nn1C`: the inhibition at 25 µg/mL (in the test with Phytophthora infestans [1]; with Pyricularia oryzae [4]; in test [5]) was 100% each time. For the same compound, the values for the inhibition at 6.25 µg/mL (in test [2]; in the test on Blumeria graminis [3]) were 40% and 100%, respectively. In addition, the inhibition at 400 µg/mL (in the test with Blumeria graminis [6]; in test [8]) was 100% each time. For the same compound, the inhibition at 0.92 µg/mL with Pyricularia oryzae [7] amounted to 80%; in the test on Phytophthora infestans [10], 100%. In addition, the inhibition at 1.56 µg/mL in the test on Blumeria graminis [9] came out at 55%.
Consider `CNC(=O)/C(=N/OC)c1ccccc1COc1cc(-c2ccc(C)cc2C)nn1C`, for which the inhibition at 25 µg/mL (in the test on Phytophthora infestans [1]; with Pyricularia oryzae [4]; in [5]) was 100% throughout. Also, the inhibition at 6.25 µg/mL in test [2] was 70%; in the test on Blumeria graminis [3], 100%. The inhibition at 400 µg/mL (with Blumeria graminis [6]; in test [8]) was 100% in each case. For the same compound, the inhibition at 0.92 µg/mL amounted to 50% in the test with Pyricularia oryzae [7] and 100% in the test with Phytophthora infestans [10]. Further, the inhibition at 1.56 µg/mL in the test on Blumeria graminis [9] stood at 30%.
`CNC(=O)/C(=N/OC)c1ccccc1COc1cc(-c2ccc(C)c(C)c2)nn1C`: the inhibition at 25 µg/mL (in the test on Phytophthora infestans [1]; with Pyricularia oryzae [4]; in test [5]) was 100% in each case. In addition, the inhibition at 6.25 µg/mL came to 85% in test [2] and 100% in the test on Blumeria graminis [3]. The Activity with Myzus persicae and in the test with Tetranychus cinnabarinus was 100% each time. Moreover, the inhibition at 400 µg/mL (with Blumeria graminis [6]; in test [8]) was 100% throughout. For the same compound, the inhibition at 0.92 µg/mL in the test on Pyricularia oryzae [7] was 50%; with Phytophthora infestans [10], 80%. Besides, the inhibition at 1.56 µg/mL in the test with Blumeria graminis [9] worked out at 40%.
